Assay results: US20210308173A1, “PHARMACEUTICAL COMPOSITION COMPRISING CYCLODEXTRIN COMPLEXES OF ANETHOLE TRITHIONE OR DERIVATIVES THEREOF” (priority 2018, published 2021)

Assay: Incompatibility of AOL with lipid carriers (visual examination)
Format: physicochemical
Protocol: 100 mg of AOL were successfully dissolved in 20 mL of polyglyceryl-3 dioleate (Plurol® Oleique). A homogenous vividly orange colored solution was obtained with less than 5 minutes of magnetic stirring.
The obtained solution turned greed with obvious aspect and odor having turned rancid.
100 mg of AOL were successfully dissolved in 20 mL of 2-[2,3-bis(2-hydroxyethoxy)propoxy]ethanol; hexadecanoic acid; octadecanoic acid (Labrafil® M1944). A homogenous orange colored solution was obtained with less than 5 minutes of magnetic stirring.
The obtained solution turned dark green.
A new solution of 5 mg/mL AOL in Labrafil® M1944 and stocked in a hermetically closed recipient.

visual examination of the solution (5 mg/mL in Labrafil M1944, hermetically closed recipient, 24 hours at room temperature): same stability problem
magnetic stirring time to homogenous solution (100 mg in 20 mL Labrafil M1944): less than 5 minutes
magnetic stirring time to homogenous solution (100 mg in 20 mL polyglyceryl-3 dioleate (Plurol Oleique)): less than 5 minutes
visual examination of the solution (Labrafil M1944, after 24 hours at room temperature): intense color change
visual examination of the solution (Plurol Oleique, after 24 hours at room temperature): intense color change
stability within lipid carriers (period of 24 hours, visual observation): unstable
SMILES: COc1ccc(-c2cc(=S)ss2)cc1 [AOL, 5-(4-methoxyphenyl)-3H-1,2-dithiole-3-thione]
